# PMC8333062, “Chemical tools for epichaperome-mediated interactome dysfunctions of the central nervous system” (Nature Communications, 2021)
# Tests used:
# [1] = PET biodistribution in human patients; type: in vivo; settings: mean n=3
# Text: To evaluate the brain permeability of PU-HZ151 into the human brain, we produced the [^124I]-labeled derivative and performed serial PET imaging studies of human patients (n = 3; NCT03371420), and derived time-activity (i.e. standard uptake values (SUV) versus time post-administration) curves for the brain and various other tissues (Fig. 2b). PET data obtained for [^124I]-labeled PU-H71 (NCT01269593 and ref. [39]) were used for comparison. […] The AUC values recorded for [^124I]-PU-HZ151 in the human brain post-single injection are at par with what was measured in the human muscle and lung, supportive of uptake of PU-HZ151 into the human brain (Fig. 2b). Magnetic resonance imaging (MRI), by offering structural and soft tissue resolution, confirmed the presence of PU-HZ151 in the brain tissue (Fig. 2d). […] The secondary outcome of the trial was to measure adverse events following administration of the probe. Safety of [^124I]-PU-HZ151 in human subjects was assessed by evaluation of the incidence, nature, and severity of adverse events and serious adverse events (Supplementary Note 2).
# [^124I]-PU-HZ151 and [^124I]-PU-H71 were synthesized in-house by the institutional cyclotron core facility at high specific activity. Analyses of the epichaperome by positron emission tomography (PET-CT) were performed as previously reported. In brief, research PET-CT was performed using an integrated PET-CT scanner (Discovery DSTE, GE Healthcare). CT scans for attenuation correction and anatomic coregistration were performed before tracer injection. Patients received 5 mCi of [^124I]-PU-HZ151 or [^124I]-PU-H71 by peripheral vein over 2 min. PET data were reconstructed using a standard ordered subset expected maximization iterative algorithm. Emission data were corrected for scatter, attenuation, and decay. PET scans were performed 0.5, 3, and 24 h after tracer administration. Numbers in the scale bar indicate upper and lower standardized uptake value (SUV) thresholds that define pixel intensity on PET images. SUV is a pixel value, derived from PET measurements of in vivo radioactivity, quantified as the fraction of the radioactive dose injected found in a cubic centimeter of measured tissue multiplied (ie, normalized) by patient body weight (grams). Maximum Intensity Projection (MIP) 3D images were constructed from the voxels with maximum intensity that fell in the way of parallel rays traced from the viewpoint to the plane of projection. At each pixel the highest data value encountered along the corresponding viewing ray was determined. MRI scans were obtained as part of routine clinical care using hardware and standard data acquisition and processing methods. MRI was obtained using a 1.5T magnet (Signa HDxt, GE Healthcare, Milwaukee, WI). […] Gadopentetate dimeglumine (Magnevist, HealthCare Pharmaceuticals Inc.) was injected though a peripheral angiocatheter at a standard dose (0.2 mL kg^−1 body weight, 40 mL, 2 cc s^−1). For precise localization of tracer uptake to specific neuroanatomical structures, PET brain images were fused to MRI brain images using the Integrated Registration application of the AW Suite software package (GE Healthcare, Milwaukee, Wisconsin, USA).
# [2] = LC/MS-MS tissue concentration 48 h after 75 mg kg-1 ip; type: in vivo; settings: mouse, MDA-MB-468 tumor, intraperitoneal, 75 mg kg^−1, 48 h post 75mg/kg ip, mouse 1-4; read-out: [PU-HZ151] MDA-MB-468 TUMOR
# CYP2C8 = molecular target: T1, CYP2C8 (Homo sapiens, UniProt P10632); experiment: Cytochrome P450 profiling, montelukast; type: in vitro ADME; settings: for % PU-HZ151 remaining: Montelukast
# T1 construct: tissue Life Technologies HMMCPL; host or cells: human liver microsomes
# T1 sequence (P10632 1-490): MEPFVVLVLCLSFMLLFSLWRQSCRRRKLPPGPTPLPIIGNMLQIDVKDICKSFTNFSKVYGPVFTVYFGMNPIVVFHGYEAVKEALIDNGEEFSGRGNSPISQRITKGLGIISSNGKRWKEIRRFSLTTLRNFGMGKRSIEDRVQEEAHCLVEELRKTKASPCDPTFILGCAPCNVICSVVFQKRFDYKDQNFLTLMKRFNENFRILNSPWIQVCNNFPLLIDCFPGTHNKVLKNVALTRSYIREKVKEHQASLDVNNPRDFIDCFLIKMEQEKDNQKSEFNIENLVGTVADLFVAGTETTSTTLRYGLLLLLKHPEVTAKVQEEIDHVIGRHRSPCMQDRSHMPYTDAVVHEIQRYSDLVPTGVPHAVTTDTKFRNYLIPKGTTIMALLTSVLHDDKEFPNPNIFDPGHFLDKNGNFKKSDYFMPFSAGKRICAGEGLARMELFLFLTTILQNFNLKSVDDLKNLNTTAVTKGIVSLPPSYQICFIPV
# Procedure: To identify cytochrome P450 enzymes responsible for PU-HZ151’s metabolism in human liver microsomes the following procedure was followed. Phosphate buffer (100 mM, pH 7.4) was prepared monthly and stored at 4 °C. Frozen stock solutions of human liver microsomes (Life Technologies; Cat# HMMCPL) were used once after thawing and were not refrozen. NADPH stock solution (50 mM) in distilled water was prepared fresh daily. […] The stock solutions of these P450 inhibitors were prepared in DMSO. […] The concentration of the chemical inhibitors used in the assay were furafylline (10 μM), tranylcypromine (2 μM), ketoconazole (1 μM), troleandomycin (20 μM), orphenadrine (50 μM), montelukast (3 μM), sulfaphenazole (10 μM), benzylnirvanol (1 μM), quinidine (1 μM), and 1-aminobenzotriazole (1 mM) for all the P450 enzymes. Timing of the reactions was started following the addition of NADPH/magnesium chloride mix and PU-HZ151. Time-dependent chemical inhibitors (furafylline, troleandomycin, orphenadrine, and 1-aminobenzotriazole) were preincubated with human microsomes in the presence of NADPH and magnesium chloride for 15 min before the addition of PU-HZ151 and timing of reactions was started after addition of PU-HZ151. […] Following brief vortexing and centrifugation, a 200 µL aliquot of the supernatant was transferred to a tube, and 10 µL of haloperidol (1 µg mL^−1) as internal standard was added. Following brief vortexing and centrifugation, 50 µL of supernatant was added to a 96-well plate for subsequent LC-MS/MS analysis. PU-HZ151 was similarly tested as above in the absence of CYP inhibitors for comparative purposes. All samples were assayed in duplicate. […] This was similarly performed for incubations of PU-HZ151 performed in the absence of CYP inhibitor.
# HER2 in SKBR3 cells = experiment: HER2 degradation; type: cell-based, human
# [3] = Chronic administration toxicity; type: in vivo, B6C3F1 mice; settings: 75 mg/kg IV 3 times per week, approximately 24 weeks
# MDA-MB-468 cells = experiment: Cell viability, ATP levels 72 h; type: cell-based, human; settings: control MDA-MB-468 of Fig. 6f; mean
smiles,measurement,setting,value
CC(C)(C)CNCCn1c(Sc2cc3c(cc2I)OCO3)nc2c(N)ncnc21 [Compound 85],"SUV average, Brain",[1]; 0.5 h,1.12 SUV
same,"SUV average, Lung",[1]; 0.5 h,0.59 SUV
same,"SUV average, Muscle",[1]; 0.5 h,0.87 SUV
same,"SUV average, Brain",[1]; 3 h,0.49 SUV
same,"SUV average, Lung",[1]; 3 h,0.34 SUV
same,"SUV average, Muscle",[1]; 3 h,0.37 SUV
same,"SUV average, Brain",[1]; 24 h,0.04 SUV
same,"SUV average, Lung",[1]; 24 h,0.1 SUV
same,"SUV average, Muscle",[1]; 24 h,0.1 SUV
same,concentration at 48 h,[2],1670 nM
same,% PU-HZ151 remaining,CYP2C8; 15 min,59.7%
same,% PU-HZ151 remaining,CYP2C8; 30 min,42.1%
same,% PU-HZ151 remaining,CYP2C8; 60 min,22.4%
same,inhibition of PU-HZ151 metabolism,CYP2C8; montelukast,6%
same,IC50,HER2 in SKBR3 cells,8.2 nM
same,chronic toxicity,[3],No
same,%Survival of cells at day 0 (ATP levels),MDA-MB-468 cells,-90%
